Consider three compounds from patent publication US8097615B2, “Neurofibrillary labels” (Wista Laboratories Ltd., priority 2001, dated 2012).

The conditions of assay [1]: PET after injection; cases with clinical and neuroradiological diagnosis of Alzheimer's disease; cited from earlier work.
The target in assay [2] is T1, synthetic beta-amyloid fibrils (Homo sapiens, UniProt P05067).
T1 construct: host or cells: synthetic peptide
The note with it: in vitro; cited from earlier work.

In assay [3] the test system is PHFs. Kind of assay: Morphological studies of PHFs in the presence of phenothiazines (electron microscopy).
Assay [4] addresses T2, tau-tau binding (Homo sapiens, UniProt P10636).
T2 construct: a truncated tau protein corresponding to the core fragment and terminating at Ala390-dGA; dGAE which terminates at Glu-391; made in house; host or cells: E. coli BL21 (DE3), pRK172; DE52 flow-through, P11 phosphocellulose, PEG concentration, no heat step (Preparation 2)
The assay can be described thus: Solid-phase tau-tau binding assay (dGA solid phase, dGAE liquid phase), tau Preparation 2. Conditions: Preparation 2. The format is biochemical. How it is done: Preparation 2 differs from Preparation 1 above in the following respects: (1) The concentration of cells at the sonication stage is increased by 5-fold. (2) A batchwise adsorption of non-tau proteins to DE52 is included. (3) The proteins are not subjected to heat treatment. (4) The final step involves concentration using polyethylene glycol.
Escherichia coli is grown in 2×TY medium (Oxoid) supplemented with ampicillin (50 micrograms per ml) to late-logarithmic phase. Cells from 5 liters of culture are harvested by centrifugation and the cell pellets frozen rapidly over liquid nitrogen. The pellets are taken up with 50 mM PIPES (pH 6.8) containing 1 mM EDTA, 1 mM dithiothreitol and 1 mM phenylmethylsulphonylfluoride (PMSF) and bacteria lysed by sonication (2×3 min) at 4 C. The mixture is centrifuged at 10,000 rpm for 20 min. The supernatant is rotated with 1 gram of Whatman DE52 for 3 hr at 4 C. The mixture is separated on a column and the flow-through material that fails to bind to DE52 is incubated for 3 hr at 4 C, with rotation, with 0.4 g of Whatman P11 (freshly regenerated according to manufacturer's recommendations). The column is washed with column buffer (50 mM PIPES, pH 6.8 containing 1 mM EGTA, 5 mM EDTA, 0.2 mM MgCl2, 5 mM β-mercaptoethanol and 1 mM PMSF). Tau protein is eluted stepwise with a 0.1 to 1 M gradient of KCl in column buffer. Fractions containing tau (determined by immunoassay) are pooled and dialysed against 80 mM PIPES (pH6.8) containing 1 mM EGTA, 1 mM MgCl2 and 5 mM β-mercatoethanol, using dialysis tubing with a molecular weight cut-off of 1,000. The dialysate is concentrated by applying polyethylene glycol 8000 to the outside of the sac for 2-3 hr. The final concentration of tau ranged from 3 to 10 mg per ml.
When the proteins dGA and dGAE were prepared as indicated above (“Preparation 2”), the properties of the tau-tau binding assay were altered relative to the properties obtained using the preparative method described in WO96/30766 (“Preparation 1”).
The assay is performed using 96 well PVC plates (Falcon Cat. No. 353912 are used), and the following steps:
1. 50 μl dGA (˜10 μg/ml) in carbonate buffer, incubate 1 h at 37° C.
(Carbonate buffer: 50 mM carbonate bicarbonate, pH 9.6 (Na2CO3 1.59 g/l, NaHCO3 2.93 g/l))
2. Wash plate in 0.05% Tween-20.
3. 200 μl PBS+2% Marvel, incubate 1 h at 37° C.
4. Rinse plate 2× in deionised water, then wash in 0.05% Tween-20.
5. 50 μl dGAE (˜10 μg/ml) plus drug in PBS+1% fish skin gelatin+0.05% Tween-20, incubate 1 h at 37° C.
6. Wash plate in 0.05% Tween-20.
7. 50 μl antibody 423 (1:10 dilution in PBS+2% Marvel), incubate 1 h at 37° C.
8. Rinse plate 2× in deionised water, then wash in 0.05% Tween-20.
9. 50 μl HRP-anti-mouse (1:1000 dilution in PBS+0.05% Tween-20), incubate 1 h at 37° C.
10. Wash plate in 0.05% Tween-20, then rinse 1× with deionised water.
11. 50 μl substrate solution, read immediately initial rate over 2 min in plate reader at OD650.
(Substrate solution: 50 mM sodium acetate, pH 5.0+TMB (1 ml/100 ml of a 10 mg/ml solution in DMSO)+H2O2 (10 μl/100 ml)).

Assay [5] deals with tangle fragments. The assay can be described thus: Competitive binding assay: displacement of primulin fluorescence from tangle fragments (ifI). Details: species or system human. The note with it: fluorescence end point. The method, then: IfI material was homogenised in a 0.2 ml glass homogeniser in PBS. To the suspension, test compounds were added to final concentrations ranging from 0.1% to 0.00001%. […] The suspensions were transferred to a glass slide, and examined by fluorescence microscopy across a range of fluorescence filter blocks, covering excitation and emission wavelengths between 380 nm and 570 nm. The end point sought in these observations was displacement of typical primulin fluorescence from tangle fragments.

Assay [6] concerns the target T2, tau-tau binding. Kind of assay: Relief of DMMB inhibition of tau-tau binding by ligands (Preparation 2). It is filed as biochemical. An excerpt: 2. using tau proteins prepared in this manner for testing putative ligands in the tau-tau binding assay provided in WO96/30766 to identify substances which have minimal or entirely absent activity as tau-aggregation inhibitors or enhance tau-tau binding at high concentrations; 3. testing putative ligands in the presence of an exemplary potent tau-aggregation inhibitor, such as DMMB, at an inhibitory concentration; 4. putative ligands can be identified by the property that they lack capacity to block tau-tau binding through the repeat domain, but block the inhibitory activity of a potent tau-aggregation inhibitor.
(ii) contacting (a) a tau protein or a derivative thereof containing the tau core fragment bound to a solid phase so as to expose a high affinity tau capture site (e.g. a truncated tau protein corresponding to the core fragment and terminating at Ala390-dGA), with (b) a liquid phase tau protein or derivative thereof capable of binding to the solid phase tau protein or derivative (e.g. dGAE which terminates at Glu-391), and (c) said selected first agent and (d) a second agent known to be tau-tau binding inhibitor, (iii) selecting a first agent which fully or partially relieves the inhibition of binding of the liquid phase tau protein or derivative of (b) to the solid phase tau protein or derivative of (a) by the inhibitor (d).
Similar results are shown for 15 μM DMMB in the presence of increasing concentrations of Primulin (c) and Thiazin Red (d).
For each graph, Tau-Tau binding is shown in the presence of constant concentrations of DMMB co-incubated with Primulin at 0×, 1×, 5×, 10×, 100× the DMMB concentrations shown.
This implies that the Tau-aggregation enhancement effect of these ligands is proportional to the fraction of ligand-binding sites occupied, presumably within the Tau aggregates introduced into the aqueous-phase of the assay. The mean Bmax for both ligands is ˜1.6. That is, the maximum ligand effect is to produce 1.6-fold the Tau-Tau binding signal seen in the absence of any drug. The mean Kd for this effect is ˜15×. That is, for any given concentration of DMMB>4 μM, 50% of maximal enhancement of Tau-Tau binding can be seen when the ligand molar excess is 15-fold relative to the concentration of DMMB.

Assay [7] concerns tau-tau binding. The assay can be described thus: Solid-phase tau-tau binding assay, tau Preparation 1 (WO96/30766). The format is biochemical, human. An excerpt: This point was further examined by studying the potency of typical aggregated tau ligands as tau-aggregation inhibitors. It has been shown previously that tau aggregation inhibitors (e.g. diaminophenothiazines) can be identified on the basis of inhibition of tau-tau binding in a solid-phase assay (WO 96/30766). […] Thus, although these compounds are potent ligands for tau within the PHF-core, they are at most weak inhibitors at the site required for inhibition of tau-tau binding.
Large-scale purification (1 liter bacterial culture) of tau fragments was carried out as described by Goedert and Jakes (1990, EMBO J., 9, 4225-4230), with minor modifications. Cells were disrupted by rapid freezing of the cell pellet in liquid nitrogen. The pellets were then suspended in buffer containing 50 mM PIPES, 1 mM dithiothreitol (DTT) (pH 6.8). The thermostable proteins in the supernatant were dialysed against PIPES/DTT, then applied to a column containing phosphocellulose equilibrated in the same buffer. […] Fractions were analysed by SDS-PAGE and both Coomassie staining and immunoblotting. […] Protein concentrations were measured by the Lowry method (Harrington C R (1990), “Lowry protein assay containing sodium dodecyl sulphate in microtitre plates for protein determinations on fractions from brain tissue”, Analytical Biochemistry 186: 285-287).

T2 sequence (P10636 614-708 limits assumed): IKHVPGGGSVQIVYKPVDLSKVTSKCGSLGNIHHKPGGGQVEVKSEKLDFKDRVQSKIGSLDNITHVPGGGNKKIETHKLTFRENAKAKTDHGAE
T1 sequence (P05067 672-711 limits assumed): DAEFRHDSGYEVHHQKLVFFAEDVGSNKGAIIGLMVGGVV

For the compound `CC(=C(C#N)C#N)c1ccc2cc(N(C)CC[18F])ccc2c1` [FDDNP, 2-(1-{6-[(2-[^18F]fluoroethyl)(methyl)amino]-2-naphthyl}ethylidene)malononitrile], the “relative retention time (RRT)” value in assay [1] is on record as “increased relative retention time”. Besides, the “binding to synthetic beta-amyloid fibrils” value in assay [2] was “bind with high affinity”.
Consider `CN(C)c1ccc2nc3ccc(=[N+](C)C)cc-3sc2c1` [methylene blue], for which the “disruption of PHF structure” value in assay [3] is on record as “disruption of PHF structure in the presence of sufficiently high concentrations”.
Turning to `Cc1ccc2sc(-c3ccc(N=Nc4cc(S(=O)(=O)[O-])c5ccccc5c4O)cc3)nc2c1S(=O)(=O)[O-].[Na+].[Na+]` [thiazin red], the results for the “inhibition of tau-tau binding” value in assay [4] and in assay [7] were “no inhibitory activity” and “weak inhibitors of tau-tau binding”, respectively. The “competition with / displacement of other ligands at tangles” value in assay [5] is reported as “compete with primulin at equivalent concentrations”. Besides, the “BMax of tau-tau binding” value in assay [6] (5 μM DMMB, Binding=(BMax×[ligand])/(Kd+[ligand])) is recorded as 1.64. The “reversal of inhibitory effect of DMMB on tau-tau binding” value in assay [6] (co-incubation with increasing molar excess of ligand) is reported as “completely reversed”.
